Measured values published in patent US10000771B2, “Nuclear targeting sequences” (Yeda Research and Development Co. Ltd., priority 2007, dated 2018).
Ends that are not written are not given here. 2GFP = dimer of GFP proteins

How the values were obtained:
CHO cells = experiment: Fluorescence microscopy of 2GFP chimeras (subcellular localization); type: cell-based; conditions: 24 hr post transfection, serum-starved
Protocol: FIGS. 8A-8H are photomicrographs illustrating that SPS, APA, and EPE peptides fused to a 2GFP chimera modify its subcellular localization. CHO cells were grown on cover slips and transfected with 19 amino acid from the kinase insert domain of ERK2 including the SPS region (GFP-SPS) fused to a 2GFP chimera and with the same chimeras with substitution of the Ser to Ala (GFP-APA) or substitution to Glu (GFP-EPE). Twenty-four hr later, the cells were serum-starved for 16 hr, fixed, stained with DAPI and visualized by a fluorescence microscope.
(§1) Immunofluorescence Microscopy. Cells were fixed (30 min in 3% paraformaldehyde in PBS or 10 min with ice-cold methanol), followed by 5-min permeabilization with 0.2% Triton X-100 in PBS (23° C.). The fixed cells were sequentially incubated with the appropriate Abs (45 min) followed by rhodamine-conjugated secondary Abs (45 min) and DAPI. Slides were visualized using a fluorescence microscope (Nikon, Japan) at 400× magnifications.
To validate the general importance of the SPS domain, a 19 amino acid sequence surroundings the SPS or the APA and EPE mutants was fused to a dimer of GFP proteins (2GFP). Cellular distribution of the chimeras was detected in CHO cells 24 hr post transfection of the GFP constructs.

COS7 cells [1] = experiment: Subcellular fractionation of 2GFP chimeras; type: cell-based
Protocol: FIG. 9A is an autoradiograph illustrating the subcellular fractionation of transfected SPS, APA, and EPE peptides fused to a 2GFP in COS7 cells. Western blot analysis of aliquots of the fractions were stained with anti GFP Ab to detect the different chimaras, and with anti tubulin and anti c-Jun Abs as markers for the cytoplasmic and nuclear fractions respectively.
(§2) Cellular Fractionation: Transfected COS7 cells were starved (0.1% FBS) for 16 h, after which they were washed with ice-cold PBS, suspended in ice-cold buffer H, and centrifuged (12,000×g, 5 min). Then, the nuclear and cytosolic fractions were isolated as described [H. Rubinfeld, T. Hanoch, R. Seger, J. Biol. Chem. 274, 30349 (1999)]. Briefly, the pellets were suspended in 0.1% NP-40 followed by centrifugation (12,000×g, 5 min). The supernatant, containing the cytosolic fraction, was boiled in sample buffer. The pellet was suspended in extraction buffer (420 mM Nacl, 50 mM β-glycerophosphate, 0.5 mM Na3VO4, 1.5 mM MgCl2, 0.2 mM EDTA, 1 mM DTT, 25% glycerol), incubate on ice for 10 min, sonicated (50 W, 2×7 sec), and centrifuged (12,000×g, 5 min). The supernatant, containing the nuclear fraction, was subjected to Western blot.

endogenous ERKs = experiment: Effect of 2GFP chimeras on nuclear translocation of endogenous ERKs; type: cell-based; conditions: CHO cells overexpressing the chimera, TPA 250 nM, 15 min
Protocol: FIGS. 10A-10X illustrate the effects of the 2GFP chimeras on the nuclear translocation of endogenous ERKs. CHO cells overexpressing 2GFP, 2GFP-SPS, 2GFP-APA and 2GFP-EPE were serum starved and treated with or without TPA (250 nM, 15 min). Subsequently, the cells were fixed and stain with anti-ERK2 (C-14) Ab and with DAPI.
as §1

COS7 cells [2] = experiment: Subcellular fractionation of GFP-ERK2 constructs; type: cell-based; conditions: 48 hr after transfection, serum-starved
Protocol: FIG. 6 is an autoradiograph illustrating the subcellular fractionation of WT-GFP-ERK2 (WT), APA-GFP-ERK2 (APA), or EPE-GFP-ERK2 (EPE). COS7 cells were grown in 10 cm plates and transfected with the above ERK2 constructs. Twenty-four hr after transfection the cells were serum-starved for 16 hr and subjected to cellular fractionation as described under materials and Methods. Western blot analysis of aliquots of the fractions were stained with anti GFP Ab to detect the ERK2 and its mutant, and with anti tubulin and anti c-Jun Abs as markers for the cytoplasmic and nuclear fractions respectively.
as §2, with “The supernatant, containing the nuclear fraction, was subjected to Western blot.” left out

Nup153c = experiment: Interaction with recombinant His-Nup153c; type: binding; conditions: immunoprecipitated ERK2 incubated with 0.5 μg recombinant His-Nup153c
Protocol: FIGS. 19A-19C are autoradiographs illustrating that phospho-SPS interacts with importin-7 and releases Nup153c binding without involvment of importin-β. […]. Interaction of ERK2 with Importin-7 is enhanced by EGF stimulation and EPE mutation. HeLa cells overexpressing WT-ERK (WT), ERK-APA (APA), ERK-EPE (EPE) or GFP were serum starved and treated with EGF (50 ng/ml, 10 min). The extracts of the treated cells were then subjected to coimmunoprecipitation using A/G beads pre-conjugated with anti GFP Ab and mild washes. The coimmunoprecipitated importin-7 (first panel) and importin-β (third panel), as well as their loading amounts (panels 2 and 4 respectively) were determined by WB using anti importin-7 (αImp7) and importin-β (αImpβ) Abs. The equal amount of immunoprecipitated ERKs was determined with anti GFP (αGFP; IP) Ab. FIG. 19B. Interaction of 2GFP-SPS and its mutants with importin-7. HeLa cells overexpressing 2GFP, 2GFP-SPS, 2GFP-APA and 2GFP-EPE constructs were subjected to coimmunoprecipitation as described in FIG. 19A (without EGF stimulation). FIG. 19C. Interaction of NUP153 with WTERK2 and its APA and EPE mutants. NUP153c is elevated in APA-ERK2, but reduced in EPE-ERK2. Immunoprecipitated and stringently washed WT-ERK2 (WT), APA-ERK2 (APA) or ERK2 from […] cells pre-treated with or without TPA (250 nM, 15 min) were incubated with 0.5 μg recombinant His-Nup153c. […]

Substance	cellular distribution (CHO cells)	localized in the nucleus (COS7 cells [1])	inhibition of TPA-induced translocation of endogenous ERKs (endogenous ERKs)	localized in the nucleus (COS7 cells [2])	interaction with Nup153 (Nup153c)
2GFP-SPS: 2GFP with the 19 amino acid stretch containing the SPS of ERK2 (SEQ ID NO: 6) fused to its C terminus (2GFP-LDQLNHILGILGSPSQEDL)	localized throughout the cell	15%	inhibited	–	–
WT-ERK2: wild-type ERK2 fused to GFP, prepared in pEGFP C1 [reference compound]	–	–	–	about 75%	interacts with Nup153
